In patent US20130296311A1, “INHIBITORS OF HCV NS5A” (PRESIDIO PHARMACEUTICALS, INC., priority 2010, published 2013) one finds EC50 data, which are given here for 29 molecules.

Where only a bound is given, the exact number is not on record here.

For one assay, the system named is HCV 1b_Huh-Luc/Neo-ET cell line persistently expressing a bicistronic genotype 1b replicon in Huh 7 cells. The assay can be described thus: HCV replicon assay (luciferase readout, 72 h). Type of assay: cell-based, HCV genotype 1b. Particulars: Hepatitis C virus, Huh-7, 72 h, read-out: Inhibition of HCV genotype 1b. An outline of the steps:
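Huh 7 cells carrying a bicistronic genotype 1b luciferase/neo replicon received compound in triplicate the day after plating. After 72 h, replicon levels were read as Bright-Glo luciferase activity, expressed as % of control; EC50 was fitted with a four-parameter logistic and determined several times.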
In general terms: A replicon is a self-replicating genome or part of one, used to study replication in cells.
`COC(=O)N[C@H](C(=O)N1CCC[C@H]1c1ncc(-c2ccc(C#Cc3ccc(-c4cnc([C@@H]5CCCN5C(=O)[C@@H](NC(=O)OC)[C@@H](C)O)[nH]4)cc3)cc2)[nH]1)[C@@H](C)O` [Compound 283]: the EC50 was below 1 nM.

For the molecule `CC(C)[C@@H](NC(=O)N1CCCC1)C(=O)N1CCC[C@H]1c1ncc(-c2ccc(C#Cc3ccc(-c4cnc([C@@H]5CCCN5C(=O)[C@H](NC(=O)N5CCCC5)C(C)C)[nH]4)cc3)cc2)[nH]1` [Compound 293], the EC50 is above 1000 nM.

With `COC(=O)N[C@@H](C(=O)N1CCC[C@H]1c1ncc(C#Cc2ccc(C#Cc3cnc([C@@H]4CCCN4C(=O)[C@@H](c4ccccc4)N4CCCC4)[nH]3)cc2)[nH]1)c1ccccc1` [Compound 311], the EC50 was below 1 nM.

With `COC(=O)N[C@@H](C(=O)N1CCC[C@H]1c1ncc(-c2ccc(C#Cc3cnc([C@@H]4CCCN4C(=O)[C@@H](c4ccccc4)N(C)C)[nH]3)cc2)[nH]1)c1ccccc1` [Compound 128], the EC50 is below 1 nM.

In the case of `COC(=O)N[C@H](C(=O)N1CCC[C@H]1c1ncc(-c2ccc(C#Cc3ccc(-c4cnc([C@@H]5CCCN5C(=O)[C@@H](C(C)C)N(C)C)[nH]4)cc3)cc2)[nH]1)C(C)C` [Compound 954], the EC50 lay in the range of 1 to 9.9 nM.

For the molecule `COC(=O)N[C@@H](C(=O)N1CCC[C@H]1c1ncc(-c2ccc(C#Cc3ccc(-c4cnc([C@@H]5CCCN5C(=O)[C@H](OC)c5ccccc5)[nH]4)cc3)cc2)[nH]1)c1ccccc1` [Compound 179], the EC50 was below 1 nM.

Consider `O=C(N[C@@H](C(=O)N1CCC[C@H]1c1ncc(-c2ccc(C#Cc3ccc(-c4cnc([C@@H]5CCCN5C(=O)[C@H](NC(=O)N5CCC(O)CC5)c5ccccc5)[nH]4)cc3)cc2)[nH]1)c1ccccc1)N1CCC(O)CC1` [Compound 251], for which the EC50 was below 1 nM.

Consider `COC(=O)N[C@@H](C(=O)N1CCC[C@H]1c1ncc(-c2ccc(C#Cc3ccc(-c4cnc([C@@H]5CCCN5C(=O)[C@H](NC(=O)C5(O)CC5)c5ccccc5)[nH]4)cc3)cc2)[nH]1)c1ccccc1` [Compound 277], for which the EC50 is below 1 nM.

For the molecule `COC(=O)N[C@H](C(=O)N[C@@H](C)c1ncc(-c2ccc(C#Cc3ccc(-c4cnc([C@@H]5CCCN5C(=O)[C@@H](c5ccccc5)N(C)C)[nH]4)cc3)cc2)[nH]1)C(C)C` [Compound 965], the EC50 is below 1 nM.

For `CC(=O)N[C@@H](C(=O)N1CCC[C@H]1c1ncc(-c2ccc(C#Cc3ccc(-c4cnc([C@@H]5CCCN5C(=O)[C@H](NC(C)=O)c5ccccc5)[nH]4)cc3)cc2)[nH]1)c1ccccc1` [Compound 158], the EC50 was below 1 nM.

As to `COC(=O)N[C@@H](Cc1ccccc1)C(=O)N1CCC[C@H]1c1ncc(-c2ccc(C#Cc3ccc4nc([C@@H]5CCCN5C(=O)[C@H](Cc5ccccc5)NC(=O)OC)[nH]c4c3)cc2)[nH]1` [Compound 1045], the EC50 is below 1 nM.

Turning to `COC(=O)N[C@H](C(=O)N1CCC[C@H]1c1ncc(-c2ccc(C#Cc3ccc(-c4cnc([C@@H]5CCCN5C(=O)[C@@H](NC(=O)OC)C5CCOCC5)[nH]4)c(F)c3)cc2)[nH]1)C1CCOCC1` [Compound 1012], the EC50 was below 1 nM.

As to `COC(=O)N[C@H](C(=O)N[C@@H](C)c1ncc(-c2ccc(C#Cc3ccc(-c4cnc([C@@H]5CCCN5C(=O)[C@@H](NC(=O)OC)C(C)C)[nH]4)cc3)cc2)[nH]1)C(C)C` [Compound 275], the EC50 is below 1 nM.

With `COC(=O)N[C@H](C(=O)N[C@@H](C)c1ncc(-c2ccc(C#Cc3ccc4nc([C@H](C)NC(=O)[C@@H](NC(=O)OC)C(C)C)[nH]c4c3)cc2)[nH]1)C(C)C` [Compound 868], the EC50 is below 1 nM.

Regarding `CC(=O)N[C@@H](C(=O)N1CCC[C@H]1c1ncc(C#Cc2ccc(C#Cc3cnc([C@@H]4CCCN4C(=O)[C@H](NC(C)=O)c4ccccc4)[nH]3)cc2)[nH]1)c1ccccc1` [Compound 306], the EC50 was below 1 nM.

`COC(=O)N[C@H](CC(=O)N1CCC[C@H]1c1ncc(-c2ccc(C#Cc3ccc4nc([C@@H]5CCCN5C(=O)C[C@@H](NC(=O)OC)C(C)C)[nH]c4c3)cc2)[nH]1)C(C)C` [Compound 1065]: the EC50 was 10 to 999 nM.

Turning to `COC(=O)N1CCC[C@H]1C(=O)N1CCC[C@H]1c1ncc(-c2ccc(C#Cc3ccc4nc([C@@H]5CCCN5C(=O)[C@@H]5CCCN5C(=O)OC)[nH]c4c3)cc2)[nH]1` [Compound 1063], the EC50 lay within 10 to 999 nM.

Turning to `COC(=O)N[C@H](C(=O)N1CCSC[C@H]1c1ncc(-c2ccc(C#Cc3ccc4nc([C@@H]5CCCN5C(=O)[C@@H](NC(=O)OC)C(C)C)[nH]c4c3)cc2)[nH]1)C(C)C` [Compound 1062], the EC50 was below 1 nM.

Regarding `COC(=O)N[C@H](C(=O)N1CCC[C@H]1c1nc2c([nH]1)-c1ccc(C#Cc3ccc4nc([C@@H]5CCCN5C(=O)[C@H](NC(=O)OC)c5ccccc5)[nH]c4c3)cc1CC2)C(C)C` [Compound 1103], the EC50 is below 1 nM.

For the molecule `COC(=O)N[C@H](C(=O)N1CCC[C@H]1c1ncc(-c2ccc(C#Cc3ccc(-c4cnc([C@@H]5CCCN5C(=O)[C@@H](Nc5cccnc5)C(C)C)[nH]4)cc3)cc2)[nH]1)C(C)C` [Compound 995], the EC50 is below 1 nM.

Regarding `COC(=O)N[C@H](C(=O)N1CCC[C@H]1c1ncc(-c2ccc(C#Cc3ccc(-c4cnc([C@@H]5CCCN5C(=O)[C@H](NC(=O)N(CCO)CCO)c5ccccc5)[nH]4)cc3)cc2)[nH]1)C(C)C` [Compound 973], the EC50 was below 1 nM.

`COC(=O)N[C@H](C(=O)N1CCC[C@H]1c1ncc(-c2ccc(C#Cc3ccc(-c4cnc([C@H](C)NC(=O)[C@H](C(C)C)N(C)C)[nH]4)cc3)cc2)[nH]1)C(C)C` [Compound 981]: the EC50 was in the range of 10 to 999 nM.

Still in this assay, the particulars now being: Hepatitis C virus, Huh-7, read-out: Inhibition of HCV genotype 1b.
As to `COC(=O)N[C@H](C(=O)N1CCC[C@H]1c1ncc(-c2ccc3cc(C#Cc4[nH]c([C@@H]5CCCN5C(=O)[C@@H](NC(=O)OC)C5CCCC5)nc4C(F)(F)F)ccc3c2)[nH]1)C1CCCC1` [Compound 1254], the EC50 is below 1 nM.

On to `COC(=O)NC(C(=O)N1CCC[C@H]1c1nc2ccc(C#Cc3ccc4cc(-c5cnc([C@@H]6CCCN6C(=O)[C@@H](NC(=O)OC)C6CCOCC6)[nH]5)ccc4n3)cc2[nH]1)C(C)C` (some centres unmarked) [Compound 1290], for which the EC50 was below 1 nM.

For the molecule `COC(=O)N[C@H](C(=O)N1CCC[C@H]1c1nc(C)c(C#Cc2ccc3cc(-c4cnc([C@@H]5CCCN5C(=O)[C@@H](NC(=O)OC)[C@@H](C)OC)[nH]4)ccc3c2)[nH]1)C(C)C` [Compound 1264], the EC50 is below 1 nM.

With `COC(=O)N[C@H](C(=O)N1CCN(C(=O)OC)C[C@H]1c1ncc(-c2ccc(C#Cc3ccc(-c4cnc([C@@H]5CCCN5C(=O)[C@@H](NC(=O)OC)C5CCOCC5)[nH]4)cc3)cc2)[nH]1)C(C)C` [Compound 1205], the EC50 was below 1 nM.

`COC(=O)N[C@H](C(=O)N1CCC[C@H]1c1ncc(-c2ccc(C#Cc3ccc(-c4cnc([C@@H]5CCCN5C(=O)[C@@H](NC(=O)OC)C(C)C)[nH]4)cc3C(=O)N3CCCC3)cc2)[nH]1)C(C)C` [Compound 1208]: the EC50 was below 1 nM.

`COC(=O)N[C@H](C(=O)N1CCC[C@H]1c1ncc(-c2ccc3cc(C#Cc4[nH]c([C@@H]5CCCN5C(=O)[C@@H](NC(=O)OC)C(C)C)nc4C(=O)O)ccc3c2)[nH]1)C(C)C` [Compound 1267]: the EC50 is below 1 nM.

As to `COC(=O)N[C@H](C(=O)N1CCC[C@H]1c1nc2ccc(C#Cc3ccc4c(ccc5nc([C@@H]6CCCN6C(=O)[C@@H](NC(=O)OC)C6CCOCC6)[nH]c54)c3)cc2[nH]1)C(C)C` [Compound 1287], the EC50 was below 1 nM.
